Patent US20220257706A1, “EPIDERMAL GROWTH FACTOR RECEPTOR (EGFR) LIGANDS” (NANYANG TECHNOLOGICAL UNIVERSITY, priority 2019, published 2022)

What was measured:
[1] = tested on: primary human keratinocytes; assay: Primary human keratinocyte proliferation (crystal violet); type: cell-based; conditions: 72 h, crystal violet assay
Description: HaCaT (human keratinocyte), HUVEC-CS (endothelial cells) cells were cultured in Dulbecco's modification of Eagle's medium (DMEM) supplemented with 10% fetal bovine serum and 100 U/mL of penicillin and streptomycin. Normal Human Epidermal Keratinocytes adult purchased from Lifeline® cell technology were cultured in Lifeline® DermaLife K Medium. They were grown in a 5% CO2 humidified incubator at 37° C. HaCaT cells were stably transfected with pGL4.33[luc2P/SRE/Hygro] (Promega) and selected using 250 μg/mL hygromycin. Stable HaCaT cells expressing SRE luciferase reporter were maintained with 250 μg/mL hygromycin.
Cell proliferation was determined using crystal violet staining. […] 3417-Da-peptide aB1 is a CRP isolated from Achyranthes bidentata with the amino acid sequence […] (SEQ ID NO:11). Crystal violet staining was performed as previously described. Briefly, after the incubation period, the wells were fixed with 4% buffered paraformaldehyde for 20 min. The cells were then stained with 0.25% crystal violet in 20% methanol for 15 min. The excess crystal violet stain was rinsed with distilled water for 4-5 times and air-dried. Glacial acetic acid (10%) in Milli-Q water was added to extract the crystal violet stain. The absorbance was then measured at 595 nm using a microplate reader (Tecan Infinite® 200 Pro, Switzerland).

HaCaT cells [2] = assay: EdU incorporation assay (DNA synthesis); type: cell-based, human
Description: EdU incorporation assay was performed using an EdU proliferative kit (iFluor 488) according to manufacturer's instructions. Briefly, 2.5×10^4 HaCaT cells per well were seeded in a 96-well plate. […] Cells were then fixed, permeabilized, and incubated in a reaction mix containing iFluor 488 for 30 min. The nuclei were stained using DAPI. The plates were visualized using a fluorescence microscope.

HaCaT cells [3] = assay: Cell migration scratch assay; type: cell-based, human; conditions: data not shown
Description: Cell migration was monitored using the scratch assay. Briefly, HaCaT cells were seeded into 2 well silicone inserts with a defined gap of 500 μm (ibidi, Germany). […] After incubation for 8 h, the wells were photographed using inverted phase-contrast microscope. Images were analyzed for the percentage of cell-free area using the Wimasis image analysis platform.

MEK1/2 = assay: Western blot of phosphorylated MEK1/2 in HaCaT cells; type: cell-based, human; conditions: 5 μM
Description: (§1) Blot transfer was performed onto a PVDF membrane (GE healthcare, Sweden) at 250 mA for 120 min on ice. The blot was blocked with 5% BSA TBST before incubating overnight at 4° C. with anti-P-MEK1/2 rabbit antibody (1:2000 in 5% BSA TBST; Cell Signaling, US), anti-MEK1/2 rabbit antibody (1:2000 in 5% BSA TBST; Cell Signaling, US), anti-P-ERK1/2 rabbit antibody (1:2000 in 5% BSA TBST; Cell Signaling, US), anti-ERK1/2 rabbit antibody (1:2000 in 5% BSA TBST; Cell Signaling, US), and anti-β-actin mouse antibody (1:10000 in 5% BSA TBST; Merck Millipore, US). After incubation, the membrane was washed with TBST at room temperature three times for 10 min each. The blot was then incubated with secondary anti-mouse or anti-rabbit horseradish peroxidase (HRP) (1:5000 in 5% BSA TBST; Cell Signaling, US) and was incubated for another 1 h at room temperature. The blot was washed five times 10 min each with TBST at room temperature before addition of chemiluminescence substrate (Advansta, US) and exposure on X-ray film (Fujifilm, Japan).

ERK1/2 = assay: Western blot of phosphorylated ERK1/2 in HaCaT cells; type: cell-based, human; conditions: 5 μM
Description: as §1

[4] = Heat stability (100° C., RP-HPLC); type: physicochemical; conditions: 100° C.; read-out: calculated t1/2, heat treatment
Description: Samples were collected at various time points (0, 30, 60, and 120 min).

EGFR [5] = molecular target: T1, EGFR (Homo sapiens, UniProt P00533); assay: TR-FRET EGFR ligand binding assay (competitive displacement of biotin-EGF); set-up: purchased PerkinElmer
Description: TR-FRET ratio was measured using a microplate reader in dual emission mode (Excitation: 340 nm, emission: 665 nm and 615 nm) (Cytation 1, US). […] (SEQ ID NO:11) or roseltide rT7 with an amino acid sequence of […] (SEQ ID NO:17) were used as negative control.
Target sequence in this assay (P00533 25-645 limits assumed): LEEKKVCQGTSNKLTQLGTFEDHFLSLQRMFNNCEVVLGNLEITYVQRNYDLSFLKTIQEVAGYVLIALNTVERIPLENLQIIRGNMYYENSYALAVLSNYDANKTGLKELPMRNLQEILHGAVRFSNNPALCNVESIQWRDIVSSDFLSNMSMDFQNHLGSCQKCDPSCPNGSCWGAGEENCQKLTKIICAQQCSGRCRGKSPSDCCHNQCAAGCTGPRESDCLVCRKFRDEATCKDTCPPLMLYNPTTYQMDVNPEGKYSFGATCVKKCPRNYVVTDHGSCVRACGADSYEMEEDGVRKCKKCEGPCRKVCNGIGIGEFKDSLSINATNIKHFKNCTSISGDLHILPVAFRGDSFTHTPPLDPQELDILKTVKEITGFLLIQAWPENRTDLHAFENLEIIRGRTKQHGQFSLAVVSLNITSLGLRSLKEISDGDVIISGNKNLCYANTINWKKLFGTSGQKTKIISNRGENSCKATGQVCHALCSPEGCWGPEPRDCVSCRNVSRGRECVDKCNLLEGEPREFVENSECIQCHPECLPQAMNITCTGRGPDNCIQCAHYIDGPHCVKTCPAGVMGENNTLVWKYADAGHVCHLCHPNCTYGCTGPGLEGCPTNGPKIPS

[6] = Acid stability (0.2 M HCl, 37° C.)
Description: Samples were collected at various time points.
All collected samples from various stability assays were analyzed by RP-HPLC with a linear gradient of mobile phase A (0.05% TFA/H2O) and mobile phase B (0.05% TFA/ACN) on aeris peptide XB-C18 column (Phenomenex, US). The resulting peaks were collected and identified by MALDI-TOF MS. The results were expressed as percentage of initial concentration using the peak area of the HPLC profile.

EGFR [7] = molecular target: T1, EGFR; assay: Immunoprecipitation / western blot of EGFR tyrosine phosphorylation in HaCaT cells; type: cell-based; set-up: endogenous in cells; host or cells: HaCaT; conditions: 5 μM
Description: Immunoprecipitation was performed using EGFR (D38B1) rabbit monoclonal antibodies conjugated to magnetic beads (Cell Signaling, US). Briefly, the magnetic beads were washed with PBS three times and 50 μg HaCaT cell lysate was added to each tube and allowed to incubate overnight at 4° C. with rotation. After incubation, the magnetic beads were washed five times with PBS. A 6× loading dye with β-mercaptoethanol was added to the resin and heated for 10 min at 85° C. The resultant mixture was centrifuged at 14000 g×1 min and resolved using 10% SDS-PAGE at a 100 V constant for 120 min. Blot transfer was performed on a PVDF membrane (GE healthcare, Sweden) at 250 mA for 120 min on ice. The blot was blocked with 5% BSA TBST before incubating overnight at 4° C. with anti-phosphotyrosine-HRP (R&D systems, US) or anti-EGFR anti-rabbit antibody (1:1000 in 5% BSA TBST; Cell Signaling, US). After incubation, the membrane was washed with TBST at room temperature for three times at 10 min each. The blot was then incubated with secondary anti-rabbit horseradish peroxidase (HRP) (1:5000 in 5% BSA TBST) and was incubated for another 1 h at room temperature. The blot was washed five times 10 min each with TBST at room temperature before the addition of chemiluminescence substrate (Advansta, US) and exposure on X-ray film (Fujifilm, Japan).
Target sequence in this assay (P00533 25-1210): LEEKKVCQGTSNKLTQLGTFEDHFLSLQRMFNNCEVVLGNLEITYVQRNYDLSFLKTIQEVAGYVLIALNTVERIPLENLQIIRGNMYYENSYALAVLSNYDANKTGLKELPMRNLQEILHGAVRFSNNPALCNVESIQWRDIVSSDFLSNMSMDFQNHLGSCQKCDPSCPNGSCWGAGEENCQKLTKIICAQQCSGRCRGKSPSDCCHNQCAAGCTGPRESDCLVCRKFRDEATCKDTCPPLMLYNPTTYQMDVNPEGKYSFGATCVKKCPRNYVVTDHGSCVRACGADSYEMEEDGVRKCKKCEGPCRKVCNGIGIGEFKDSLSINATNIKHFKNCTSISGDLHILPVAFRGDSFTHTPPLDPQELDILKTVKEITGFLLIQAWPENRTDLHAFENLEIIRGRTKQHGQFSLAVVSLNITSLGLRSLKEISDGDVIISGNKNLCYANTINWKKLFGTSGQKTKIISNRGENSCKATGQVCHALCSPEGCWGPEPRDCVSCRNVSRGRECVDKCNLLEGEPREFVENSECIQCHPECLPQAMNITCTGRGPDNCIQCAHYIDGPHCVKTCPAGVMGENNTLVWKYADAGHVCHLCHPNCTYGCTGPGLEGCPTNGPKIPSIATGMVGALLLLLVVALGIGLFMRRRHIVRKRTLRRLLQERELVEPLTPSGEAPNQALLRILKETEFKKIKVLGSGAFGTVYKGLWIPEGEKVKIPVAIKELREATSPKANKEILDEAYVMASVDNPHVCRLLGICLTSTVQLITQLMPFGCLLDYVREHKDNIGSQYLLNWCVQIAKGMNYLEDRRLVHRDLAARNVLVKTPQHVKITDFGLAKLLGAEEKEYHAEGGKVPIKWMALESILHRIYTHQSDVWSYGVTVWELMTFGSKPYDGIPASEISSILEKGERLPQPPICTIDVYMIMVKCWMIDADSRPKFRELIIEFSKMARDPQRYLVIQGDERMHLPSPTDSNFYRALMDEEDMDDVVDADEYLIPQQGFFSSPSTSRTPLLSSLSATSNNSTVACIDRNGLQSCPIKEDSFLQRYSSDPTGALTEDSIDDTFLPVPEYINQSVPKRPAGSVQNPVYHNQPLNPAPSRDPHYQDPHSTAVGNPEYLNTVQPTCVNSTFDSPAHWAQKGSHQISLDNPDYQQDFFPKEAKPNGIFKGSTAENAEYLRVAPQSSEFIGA

For `CC[C@H](C)[C@@H]1NC(=O)[C@H](CCC(=O)O)NC(=O)[C@H]([C@@H](C)O)NC(=O)[C@@H]2CSSC[C@@H]3NC(=O)[C@H](Cc4ccccc4)NC(=O)[C@H](CC(N)=O)NC(=O)[C@H](CO)NC(=O)[C@H](CSSC[C@H](NC(=O)[C@@H](N)CCC(N)=O)C(=O)N[C@@H](CCCCN)C(=O)N4CCC[C@H]4C(=O)N[C@@H](CC(N)=O)C(=O)NCC(=O)N[C@@H](C)C(=O)N[C@@H](CCCCN)C(=O)N2)NC(=O)[C@H](CSSC[C@@H](C(=O)N[C@@H](C)C(=O)N[C@@H](CC(N)=O)C(=O)N[C@@H](CCCNC(=N)N)C(=O)O)NC(=O)[C@H]([C@@H](C)O)NC(=O)CNC(=O)[C@H](CO)NC(=O)[C@H](CCCCN)NC(=O)[C@H](CCC(N)=O)NC(=O)CNC(=O)[C@H](C)NC(=O)[C@H](Cc2ccc(O)cc2)NC(=O)[C@H](CCCNC(=N)N)NC(=O)[C@H](CC(C)C)NC3=O)NC(=O)[C@@H]2CCCN2C(=O)[C@@H]2CCCN2C(=O)[C@H]([C@@H](C)CC)NC(=O)[C@H](CO)NC1=O` [bleogen pB1], which “proliferation of primary human keratinocytes” value [1] is on record?
Its value is “promotes the proliferation”.

And the “DNA synthesis of HaCaT cells (EdU incorporation)” value (HaCaT cells [2])?
The value was “enhances DNA synthesis”.

What about the HaCaT cell migration (HaCaT cells [3]) of the same compound?
The HaCaT cell migration was “accelerate”.

And the “phosphorylation of MEK1/2” value (MEK1/2)?
The value was “induces the phosphorylation”.

And the “phosphorylation of ERK1/2” value (ERK1/2)?
The value was “induces the phosphorylation”.

And the half-life at 0.1 M [4]?
The half-life at 0.1 M was > 8.33 h.

What about the IC50 (EGFR [5]) of the same compound?
Its IC50 is 1720 ± 0.075 nM.

What about the “potency relative to EGF in receptor displacement (fold less potent)” value (EGFR [5]) of the same compound?
The value was 50-100 fold.

What about the half-life at 0.1 M [6] of the same compound?
Its half-life at 0.1 M is > 8.33 h.

And the “phosphorylation of EGFR” value (EGFR [7])?
The value was “induces the phosphorylation”.
